Data: patent US10925852B2, “Talc-bound compositions and uses thereof” (THE TRUSTEES OF COLUMBIA UNIVERSITY IN THE CITY OF NEW YORK, priority 2015, dated 2021)
Structures can show the parent of a compound that is named as a salt. Where two headings read alike, the source gives them in different places.

Key:
NCI-28H cells [1] = experiment: Cytotoxicity assay (MTS) of NCI-28H cells: doxorubicin, cisplatin, paclitaxel, talc, talc bound to these drugs (Example 21); type: cell-based; conditions: 72 hrs
Procedure: Compare survival rate between each formulation.
1. Set up 3 cytotoxicity plates for Day 2 experiment: trypsinize NCI-28H cells (T-75 flask, passage 12): • Remove old medium, wash cells with 7 ml DPBS, remove DPBS, add 2 ml trypsin, incubate plates for 1-2′, when cells detached add 6 ml fresh medium, mix cells and medium. • Count cells under the microscope using the glass slide. […] If we need 200 wells, in each well will be 5,000 cells in 0.1 ml; so total we need 1,000,000 cells in 20 ml. […] In 50 ml Falcon tube, combine 16.6 ml fresh medium and 3.4 ml cells. Gently mix.
3. […] Final solution is 500 μL of 20 μM.
1. […] Take out supernatant.
6. Check the plate and start incubation at 37° C./5% CO2
3. Wash cells 1×300 μL media, remove final wash.

NCI-28H cells [2] = conditions: 72 hrs
NCI-28H cells [3] = system: NCI-28H cells

COc1cccc2c1C(=O)c1c(O)c3c(c(O)c1C2=O)C[C@@](O)(C(=O)CO)C[C@@H]3O[C@H]1C[C@H](N)[C@H](O)[C@H](C)O1 [DOX, Doxorubicin Hydrochloride]
AVERAGE: cells + DOX (absorbance 490 nm) (NCI-28H cells [1]; DOX 0.2 μM): 0.89 | AVERAGE: cells + DOX (absorbance 490 nm) (NCI-28H cells [1]; DOX 1 μM): 0.67 | AVERAGE: cells + DOX (absorbance 490 nm) (NCI-28H cells [1]; DOX 5 μM): 0.63

Cc1c(N)nc([C@H](CC(N)=O)NCC(N)C(N)=O)nc1C(=O)N[C@H](C(=O)N[C@H](C)[C@@H](O)[C@H](C)C(=O)N[C@H](C(=O)NCCc1nc(-c2nc(C(=O)NCCC[S+](C)C)cs2)cs1)[C@@H](C)O)C(O[C@@H]1OC(CO)[C@@H](O)C(O)C1O[C@H]1OC(CO)[C@@H](O)C(OC(N)=O)C1O)c1c[nH]cn1 (some centres unmarked) [bleomycin, Bleomycin sulfate]
% survival NCI-28H cells after treatment with BLEOMYCIN (NCI-28H cells [2]; Bleomycin 0.004 ug/ml): 92.41% | % survival NCI-28H cells after treatment with BLEOMYCIN (NCI-28H cells [2]; Bleomycin 0.015 ug/ml): 88.25% | % survival NCI-28H cells after treatment with BLEOMYCIN (NCI-28H cells [2]; Bleomycin 0.06 ug/ml): 93.38% | % survival NCI-28H cells after treatment with BLEOMYCIN (NCI-28H cells [2]; Bleomycin 0.24 ug/ml): 91.86% | % survival NCI-28H cells after treatment with BLEOMYCIN (NCI-28H cells [2]; Bleomycin 0.97 ug/ml): 86.19% | % survival NCI-28H cells after treatment with BLEOMYCIN (NCI-28H cells [2]; Bleomycin 3.9 ug/ml): 71.05% | % survival NCI-28H cells after treatment with BLEOMYCIN (NCI-28H cells [2]; Bleomycin 15.6 ug/ml): 74.60% | % survival NCI-28H cells after treatment with BLEOMYCIN (NCI-28H cells [2]; Bleomycin 62.5 ug/ml): 68.76% | % survival NCI-28H cells after treatment with BLEOMYCIN (NCI-28H cells [2]; Bleomycin 250 ug/ml): 47.13% | % survival NCI-28H cells after treatment with BLEOMYCIN (NCI-28H cells [2]; Bleomycin 1000 ug/ml): 24.92%

N.N.[Cl][Pt][Cl] [cisplatin, Cisplatin]
Average reading: cells + cisplatin (absorbance 490 nm) (NCI-28H cells [1]; Cisplatin 0.0013 μM): 1.37 | Average reading: cells + cisplatin (absorbance 490 nm) (NCI-28H cells [1]; Cisplatin 0.0064 μM): 1.19 | Average reading: cells + cisplatin (absorbance 490 nm) (NCI-28H cells [1]; Cisplatin 0.8 μM): 1.23 | Average reading: cells + cisplatin (absorbance 490 nm) (NCI-28H cells [1]; Cisplatin 4 μM): 1.18 | Average reading: cells + cisplatin (absorbance 490 nm) (NCI-28H cells [1]; Cisplatin 20 μM): 0.48 | Average reading: cells + cisplatin (absorbance 490 nm) (NCI-28H cells [1]; Cisplatin 100 μM): 0.59

Nc1ccn([C@@H]2O[C@H](CO)[C@@H](O)C2(F)F)c(=O)n1 [gemcitabine, Gemcitabine]
cytotoxic effect on NCI-28H cells (in words) (NCI-28H cells [3]): clear cytotoxic effect
